Where a name gives a salt, the structure may show the parent alone.

Results on 28 molecules are retold here after patent publication US8134015B2, “Compound inhibiting in vivo phosphorous transport and medicine containing the same” (Kyowa Hakko Kirin Co., Ltd., priority 2003, dated 2012).

In the first test the target is T1, rat NaPi-2b (Rattus norvegicus, UniProt Q9JJ09).
T1 construct: expressed in transfected cells; host or cells: Xenopus oocytes injected with cRNA
T1 sequence (Q9JJ09 1-695): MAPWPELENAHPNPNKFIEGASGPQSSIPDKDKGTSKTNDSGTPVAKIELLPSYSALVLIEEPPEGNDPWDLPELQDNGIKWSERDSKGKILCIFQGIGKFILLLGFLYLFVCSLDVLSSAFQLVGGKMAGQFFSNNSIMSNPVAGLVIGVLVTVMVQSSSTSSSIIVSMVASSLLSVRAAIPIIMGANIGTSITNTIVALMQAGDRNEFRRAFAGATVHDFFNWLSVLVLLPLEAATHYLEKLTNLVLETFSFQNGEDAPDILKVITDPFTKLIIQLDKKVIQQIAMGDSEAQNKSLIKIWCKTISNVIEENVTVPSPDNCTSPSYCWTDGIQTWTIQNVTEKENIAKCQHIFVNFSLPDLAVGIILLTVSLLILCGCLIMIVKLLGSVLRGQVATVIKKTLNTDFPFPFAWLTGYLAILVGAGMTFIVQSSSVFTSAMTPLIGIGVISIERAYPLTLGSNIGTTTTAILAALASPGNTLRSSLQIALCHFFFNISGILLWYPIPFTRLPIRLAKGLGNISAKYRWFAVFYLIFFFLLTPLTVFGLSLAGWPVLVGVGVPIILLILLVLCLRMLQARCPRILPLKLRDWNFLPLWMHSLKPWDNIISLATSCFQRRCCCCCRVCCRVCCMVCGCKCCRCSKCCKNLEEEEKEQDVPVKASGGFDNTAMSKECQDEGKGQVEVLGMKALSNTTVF
Put plainly: Sodium-dependent phosphate uptake of Xenopus oocytes which expressed NaPi-2b (32P). The conditions noted are these: Xenopus oocytes expressing rat NaPi-2b, 32P radioactive phosphorus; read-out: IC50 (phosphate uptake inhibitory activity). The test is classed as cell-based. The gist of the method:
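Read-out is 32P phosphate uptake into Xenopus oocytes expressing rat intestinal NaPi-2b (cRNA injection, 2-day culture). Inhibition at 300 μM and 100 μM was derived from a single inhibition curve and given as percent.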
One may read the IC50 as the concentration that inhibits the measured activity by half. For `COc1ccc(/C=N/NC(=O)c2cc(Cl)ccc2NC(=O)c2ccc(OC)c(OC)c2)cc1OC` [Compound 126, N-[4-Chloro-2-(3,4-dimethoxy-benzylidene-hydrazinocarbonyl)-phenyl]-3,4-dimethoxy-benzamide], the half-inhibitory concentration (IC50) was 6.43 µM.

Turning to `CCN(CC)CCN(C)Cc1cccc(C(=O)Nc2ccc(OC)cc2C(=O)N/N=C/c2cccc(F)c2)c1` [Compound 1022, 3-{[(2-Diethylamino-ethyl)-methyl-amino]-methyl}-N-[2-(3-fluoro-benzylidene-hydrazinocarbonyl)-4-methoxy-phenyl]-benzamide], the IC50 stood at 3.23 µM. Consider `CCN(CC)CCN(C)Cc1cccc(C(=O)Nc2ccc(OCCOCCOC)cc2C(=O)N/N=C/c2ccc(C)c(C)c2)c1` [Compound 1035, 3-{[(2-Diethylamino-ethyl)-methyl-amino]-methyl}-N-{2-(3,4-dimethyl-benzylidene-hydrazinocarbonyl)-4-[2-(2-methoxy-ethoxy)-ethoxy]-phenyl}-benzamide], for which the half-inhibitory concentration (IC50) was 3.7 µM.

Take `CCN(CC)CCSCc1cccc(C(=O)Nc2ccc(N3CCCCC3)cc2C(=O)NN=Cc2ccc(OC)cc2)c1` [Compound 879, 3-(2-Diethylamino-ethylsulfanylmethyl)-N-[2-(4-methoxy-benzylidene-hydrazinocarbonyl)-4-piperidin-1-yl-phenyl]-benzamide]: the IC50 worked out at 3.72 µM. `Cc1ccc(/C=N/NC(=O)c2c(NC(=O)c3cccc(CN(CC(C)O)CC(C)O)c3)sc3c2CCC3)cc1` (stereo not shown) [Compound 805, 3-{[Bis-(2-hydroxy-propyl)-amino]-methyl}-N-[3-(4-methyl-benzylidene-hydrazinocarbonyl)-5,6-dihydro-4H-cyclopenta[b]-thiophen-2-yl]-benzamide]: the concentration for half-maximal inhibition (IC50) is 4.76 µM. On the same count and under the same terms, next, `COc1ccc(/C=N/NC(=O)c2cc(F)ccc2NC(=O)c2cccc(CN(CC(C)O)CC(C)O)c2)cc1` (stereo not shown) [Compound 854, 3-{[Bis-(2-hydroxy-propyl)-amino]-methyl}-N-[4-fluoro-2-(4-methoxy-benzylidene-hydrazinocarbonyl)-phenyl]-benzamide; hydrochloride]: 1.33 µM; `Cc1ccc(/C=N/NC(=O)c2cc(Br)ccc2NC(=O)c2ccc(CN3CCC(O)CC3)cc2)cc1C` [Compound 324, N-[4-Bromo-2-(3,4-dimethyl-benzylidene-hydrazinocarbonyl)-phenyl]-4-(4-hydroxy-piperidin-1-ylmethyl)-benzamide]: 4.43 µM; `Cc1cccc(/C=N/NC(=O)c2cc(Br)ccc2NC(=O)c2ccc(CN3CCN(CCO)CC3)cc2)c1` [Compound 318, N-[4-Bromo-2-(3-methyl-benzylidene-hydrazinocarbonyl)-phenyl]-4-[4-(2-hydroxy-ethyl)-piperazin-1-ylmethyl]-benzamide]: 2.49 µM.

As to `CCN(CC)CCN(C)Cc1cccc(C(=O)Nc2ccc(N3CCCC3)cc2C(=O)N/N=C/c2ccc(OC)cc2)c1` [Compound 918, 3-{[(2-Diethylamino-ethyl)-methyl-amino]-methyl}-N-[2-(4-methoxy-benzylidene-hydrazinocarbonyl)-4-pyrrolidin-1-yl-phenyl]-benzamide], the IC50 came out at 1.55 µM. `COc1ccc(C(=O)Nc2ccccc2C(=O)N/N=C/c2ccc(F)cc2)cc1` [Compound 48, N-[2-(4-Fluoro-benzylidene-hydrazinocarbonyl)-phenyl]-4-methoxy-benzamide]: the half-maximal inhibitory concentration (IC50) worked out at 2.07 µM. Turning to `Cc1cccc(/C=N/NC(=O)c2cc(Cl)ccc2NC(=O)c2cccc(CSc3nc[nH]n3)c2)c1` [Compound 391, N-[4-Chloro-2-(3-methyl-benzylidene-hydrazinocarbonyl)-phenyl]-3-(1H-[1,2,4]triazol-3-ylsulfanylmethyl)-benzamide], the half-maximal inhibitory concentration (IC50) is 1.02 µM. Still for that read-out and setting: next, `CCc1ccc(C(=O)Nc2ccc(Br)cc2C(=O)N/N=C/c2ccc(F)cc2)cc1` [Compound 179, N-[4-Bromo-2-(4-fluoro-benzylidene-hydrazinocarbonyl)-phenyl]-4-ethyl-benzamide]: 18.7 µM.

Take `COc1ccc(C(=O)Nc2ccc(Cl)cc2C(=O)N/N=C/c2ccc(O)cc2)cc1OC` [Compound 70, N-[4-Chloro-2-(4-hydroxy-benzylidene-hydrazinocarbonyl)-phenyl]-3,4-dimethoxy-benzamide]: the half-inhibitory concentration (IC50) amounted to 9.51 µM. Same read-out and setting: next, `CCN(CC)CCN(C)Cc1cccc(C(=O)Nc2ccc(Cl)cc2C(=O)N/N=C/c2cccc(OC)c2)c1` [Compound 385, N-[4-Chloro-2-(3-methoxy-benzylidene-hydrazinocarbonyl)-phenyl]-3-{[(2-diethylamino-ethyl)-methyl-amino]-methyl}-benzamide]: 0.31 µM.

Turning to `Cc1ccc(/C=N/NC(=O)c2c(NC(=O)c3cccc(CN(CC(C)O)CC(C)O)c3)sc3ccccc23)cc1C` (stereo not shown) [Compound 792, 3-{[Bis-(2-hydroxy-propyl)-amino]-methyl}-N-[3-(3,4-dimethyl-benzylidene-hydrazinocarbonyl)-benzo[b]thiophen-2-yl]-benzamide], the 50% inhibitory concentration (IC50) is 1.26 µM. For `COc1ccc(C(=O)Nc2ccccc2C(=O)N/N=C/c2cccnc2)cc1` [Compound 112, 4-Methoxy-N-[2-(pyridin-3-ylmethylene-hydrazinocarbonyl)-phenyl]-benzamide], the IC50 came to 42 µM. Consider `Cc1ccc(/C=N/NC(=O)c2ccccc2NC(=O)c2ccc(F)cc2)cc1C` [Compound 96, N-[2-(3,4-Dimethyl-benzylidene-hydrazinocarbonyl)-phenyl]-4-fluoro-benzamide], for which the IC50 was found to be 5.94 µM. On the same count and under the same terms, to `CCN(CCO)Cc1cccc(C(=O)Nc2ccc(Cl)cc2C(=O)N/N=C/c2cccc(C)c2)c1` [Compound 424, N-[4-Chloro-2-(3-methyl-benzylidene-hydrazinocarbonyl)-phenyl]-3-{[ethyl-(2-hydroxy-ethyl)-amino]-methyl}-benzamide] belongs 1.79 µM; to `CCN(CC)CCNCc1ccc(C(=O)Nc2ccc(Br)cc2C(=O)N/N=C/c2cccc(F)c2)cc1` [Compound 296, N-[4-Bromo-2-(3-fluoro-benzylidene-hydrazinocarbonyl)-phenyl]-4-[(2-diethylamino-ethylamino)-methyl]-benzamide], 1.45 µM. Same read-out and setting: next, `COc1ccc(/C=N/NC(=O)c2cc(N3CCCCC3)ccc2NC(=O)c2cccc(CN3CCN(CCO)CC3)c2)cc1` [Compound 869, 3-[4-(2-Hydroxy-ethyl)-piperazin-1-ylmethyl]-N-[2-(4-methoxy-benzylidene-hydrazinocarbonyl)-4-piperidin-1-yl-phenyl]-benzamide]: 6.68 µM; `Cc1cc(/C=N/NC(=O)c2cc(Cl)ccc2NC(=O)c2ccncc2)oc1C` [Compound 223, N-[4-Chloro-2-(4,5-dimethyl-furan-2-ylmethylene-hydrazinocarbonyl)-phenyl]-isonicotinamide]: 11.3 µM. Same read-out and setting: next, `Cc1ccc(/C=N/NC(=O)c2cc(OCCCCF)ccc2NC(=O)c2cccc(CSCCO)c2)cc1C` [Compound 1053, N-[2-(3,4-Dimethyl-benzylidene-hydrazinocarbonyl)-4-(4-fluoro-butoxy)-phenyl]-3-(2-hydroxy-ethylsulfanylmethyl)-benzamide]: below 1 µM; `CC(O)CN(Cc1cccc(C(=O)Nc2ncccc2C(=O)N/N=C/c2ccc(Cl)c(C(F)(F)F)c2)c1)CC(C)O` (stereo not shown) [Compound 967, 3-{[Bis-(2-hydroxy-propyl)-amino]-methyl}-N-[3-(4-chloro-3-trifluoromethyl-benzylidene-hydrazinocarbonyl)-pyridin-2-yl]-benzamide]: 6.57 µM. Take `O=C(Nc1ccccc1C(=O)N/N=C/c1cccc(F)c1)c1cccc(OC(F)(F)F)c1` [Compound 120]: the IC50 was 2.55 µM. The same measure, in the same setting: to `CCOc1ccc(C(=O)Nc2ccc(Br)cc2C(=O)N/N=C/c2ccc(C)cc2)cc1` [Compound 503, N-[4-Bromo-2-(4-methyl-benzylidene-hydrazinocarbonyl)-phenyl]-4-ethoxy-benzamide] belongs 10.3 µM.

The test is the same for the next values; noted with them: phosphate uptake, oocytes expressing rat NaPi-2b; 300 μM, determined from inhibition curve.
What is called inhibition is the percentage by which the read-out fell short of the control. `CCOCCN(CCOCC)Cc1ccc(C(=O)Nc2ccc(Br)cc2C(=O)N/N=C/c2ccc(C)cc2)cc1` [Compound 734, 4-{[Bis-(2-ethoxy-ethyl)-amino]-methyl}-N-[4-bromo-2-(4-methyl-benzylidene-hydrazinocarbonyl)-phenyl]-benzamide] came in with an inhibition at 300 µM of 64.9%.

Take `COc1ccc(C(=O)Nc2ccc(Br)cc2C(=O)N/N=C/c2ccccn2)cc1OC` [Compound 243, N-[4-Bromo-2-(pyridin-2-ylmethylene-hydrazinocarbonyl)-phenyl]-3,4-dimethoxy-benzamide]: the inhibition at 300 µM is 50.2%. The same measure, in the same setting: to `COCCOc1cc(NC(=O)c2cccc(CSCC(O)CO)c2)c(C(=O)N/N=C/c2ccc(C)cc2)cc1OCCOC` (stereo not shown) [Compound 1014, N-[4,5-Bis-(2-methoxy-ethoxy)-2-(4-methyl-benzylidene-hydrazinocarbonyl)-phenyl]-3-(2,3-dihydroxy-propylsulfanylmethyl)-benzamide] belongs 55.2%.
